ChEMBL document CHEMBL5214920, “Emerging impact of triazoles as anti-tubercular agent” (Eur J Med Chem, 2022)
Values after ≈ are worked out from the molar mass of the structure shown.

Test system: Mycobacterium tuberculosis
Assay: Antitubercular activity against Mycobacterium tuberculosis H37Rv ATCC 27294 assessed as bacterial growth inhibition measured after 5 days by MABA method
Assay type: functional
Conditions: H37Rv ATCC 27294, 120 h, time 5 day

Row | SMILES | MIC [µg/mL]
1 | COc1ccc(Cn2cc(CNC(=O)c3cn4cccnc4n3)nn2)cc1 | 1.56 (≈ 4.29 µM)
2 | COc1ccc(Cn2cc(CNC(=O)c3cc4cc(OC)ccc4nc3Cl)nn2)cc1 | 1.6 (≈ 3.65 µM)
3 | Cc1nc2ncccn2c1C(=O)NCc1cn(Cc2ccc(C(F)(F)F)cc2)nn1 | 1.56 (≈ 3.76 µM)
4 | Cc1nc2ccccn2c1C(=O)NCc1cn(Cc2ccc([N+](=O)[O-])cc2)nn1 | 1.56 (≈ 3.99 µM)
5 | Cc1nc2ccccn2c1C(=O)NCc1cn(Cc2ccccc2F)nn1 | 1.56 (≈ 4.28 µM)
6 | Cc1ccc(Cn2cc(CNC(=O)c3c(C)nc4ncccn34)nn2)cc1 | 1.56 (≈ 4.32 µM)
7 | COc1ccc(C(=O)Cn2cc(CNC(=O)c3cc4cc(OC)ccc4nc3Cl)nn2)cc1 | 1.6 (≈ 3.43 µM)
8 | COc1ccc2nc(Cl)c(C(=O)NCc3cn(Cc4ccccc4)nn3)cc2c1 | 1.6 (≈ 3.92 µM)
9 | Cc1nc2ccccn2c1C(=O)NCc1cn(Cc2ccc(C(F)(F)F)cc2)nn1 | 1.56 (≈ 3.76 µM)
10 | O=C(NCc1cn(Cc2ccc(C(F)(F)F)cc2)nn1)c1cn2cccnc2n1 | 1.56 (≈ 3.89 µM)
11 | COc1ccc2nc(Cl)c(C(=O)NCc3cn(CC(=O)c4ccc(F)cc4)nn3)cc2c1 | 1.6 (≈ 3.53 µM)
12 | COc1ccc(-c2nc3ccccn3c2COCc2cn(Cc3ccc(C)cc3)nn2)cc1 | 1.56 (≈ 3.55 µM)
13 | C[C@H](CCC(=O)COc1cn(C[C@H]2O[C@@H](n3cnc4c(N)ncnc43)[C@@H]3OC(C)(C)O[C@@H]32)nn1)C12CCCC1C1CCC3C[C@H](O)CC[C@]3(C)C1CC2 (some centres undefined) | 4.09 (≈ 5.58 µM)
14 | O=C(NCc1cn(Cc2ccccc2F)nn1)c1cn2cccnc2n1 | 1.56 (≈ 4.44 µM)
15 | Cc1ccc(Cn2cc(CNC(=O)c3c(C)nc4ccccn34)nn2)cc1 | 1.56 (≈ 4.33 µM)
16 | Cc1ccc(Cn2cc(CNC(=O)c3cn4cccnc4n3)nn2)cc1 | 1.56 (≈ 4.49 µM)
17 | COc1ccc2nc(Cl)c(C(=O)NCc3cn(Cc4ccc(C#N)cc4)nn3)cc2c1 | 1.6 (≈ 3.7 µM)

Test system: Mycobacterium tuberculosis
Assay: Antitubercular activity against Mycobacterium tuberculosis H37Rv assessed as bacterial growth inhibition measured after 7 days by MABA method
Assay type: functional
Conditions: 168 h, time 7 day

Row | SMILES | MIC [µg/mL]
18 | COc1ccc(-n2nnc3c2CCC2(C=Cc4cc(C)ccc4O2)C3)cc1 (centres undefined) | 1.56 (≈ 4.34 µM)
19 | Cc1ccc2c(c1)C=CC1(CCc3c(nnn3-c3ccccc3)C1)O2 (centres undefined) | 1.56 (≈ 4.74 µM)
20 | CCCCCc1ccc(-c2cn(CC(O)COc3ccc4c(c3)OC3(CCCCC3)CC4=O)nn2)cc1 (centres undefined) | 0.78 (≈ 1.55 µM)
21 | COc1ccc(-n2nnc3c2CCC2(C=Cc4cc(Cl)ccc4O2)C3)cc1 (centres undefined) | 1.56 (≈ 4.11 µM)

Test system: Mycobacterium tuberculosis
Assay: Antitubercular activity against Mycobacterium tuberculosis H37Rv assessed as bacterial growth inhibition measured after 7 days by direct susceptibility assay
Assay type: functional
Conditions: 168 h, time 7 day

Row | SMILES | MIC [µg/mL]
22 | O=C1C(=O)N(Cc2cn(Cc3ccc(Br)cc3)nn2)c2ccccc21 | 8.09 (≈ 20.4 µM)
23 | O=C1C(=O)N(Cc2cn(Cc3ccc([N+](=O)[O-])c([N+](=O)[O-])c3)nn2)c2ccccc21 | 7.56 (≈ 18.5 µM)
24 | O=C(O)c1cn(C2CC2)c2c(NO)c(N3CCN(Cc4cn(CCN5C(=O)/C(=N\O)c6ccccc65)nn4)CC3)c(F)cc2c1=O | 0.39 (≈ 0.617 µM)
25 | COc1c(N2CCNCC2)c(F)cc2c(=O)c(C(=O)O)cn(C3CC3)c12 | 1.56 (≈ 4.32 µM)
26 | O=C(O)c1cn(C2CC2)c2cc(N3CCN(Cc4cn(CCN5C(=O)Cc6ccccc65)nn4)CC3)c(F)cc2c1=O | 0.2 (≈ 0.35 µM)
27 | CO/N=C1/C(=O)C(CCOCCOCCOCCn2cc(CN3C(=O)/C(=N/OC)c4cc(F)ccc43)nn2)c2ccccc21 (centres undefined) | 128 (≈ 210 µM)
28 | COc1c(N2CCN(Cc3cn(CCN4C(=O)/C(=N\NC(N)=O)c5cc(Cl)ccc54)nn3)CC2)c(F)cc2c(=O)c(C(=O)O)cn(C3CC3)c12 | 0.39 (≈ 0.552 µM)

Test system: Mycobacterium tuberculosis
Assay: Antitubercular activity against Mycobacterium tuberculosis H37Rv ATCC 27294 assessed as bacterial growth inhibition measured after 7 days by MABA method
Assay type: functional
Conditions: H37Rv ATCC 27294, 168 h, time 7 day

Row | SMILES | MIC
29 | Cc1ccccc1NC(=O)Cn1cc(COc2ccccc2)nn1 | > 25 µg/mL
30 | Cc1ccccc1NC(=O)Cn1cc(COc2ccc([N+](=O)[O-])cc2)nn1 | > 25 µg/mL
31 | O=C(Cn1cc(COc2ccccc2)nn1)Nc1cccc(Cl)c1 | > 25 µg/mL
32 | Cc1cccc(NC(=O)Cn2cc(COc3ccc([N+](=O)[O-])cc3)nn2)c1 | > 25 µg/mL
33 | COc1ccc(OCc2cn(CC(=O)Nc3ccccc3C)nn2)cc1 | > 25 µg/mL
34 | COc1ccc(OCc2cn(CC(=O)Nc3ccccc3)nn2)cc1 | > 25 µg/mL
35 | Cc1ccc(NC(=O)Cn2cc(COc3ccc([N+](=O)[O-])cc3)nn2)cc1 | > 25 µg/mL
36 | O=C(c1ccccc1)C1C(c2cc3ccccc3nc2N2NNc3ccccc32)C2CCCN2C12C(=O)Nc1ccccc12 (centres undefined) | 1.13 µM
37 | O=C(Cn1cc(COc2ccc([N+](=O)[O-])cc2)nn1)Nc1cccc(Cl)c1 | > 25 µg/mL
38 | O=C(Cn1cc(COc2ccc([N+](=O)[O-])cc2)nn1)Nc1ccccc1Cl | > 25 µg/mL
39 | COc1ccc(OCc2cn(CC(=O)Nc3cccc(Cl)c3)nn2)cc1 | > 25 µg/mL
40 | O=C(Cn1cc(COc2ccccc2)nn1)Nc1ccccc1Cl | > 25 µg/mL
41 | COc1ccc(OCc2cn(CC(=O)Nc3cccc(C)c3)nn2)cc1 | > 25 µg/mL
42 | O=C(Cn1cc(COc2ccccc2)nn1)Nc1ccc(Cl)cc1 | > 25 µg/mL
43 | COc1ccc(OCc2cn(CC(=O)Nc3ccc(C)cc3)nn2)cc1 | > 25 µg/mL
44 | Cc1ccc(NC(=O)Cn2cc(COc3ccccc3)nn2)cc1 | > 25 µg/mL
45 | COc1ccc(OCc2cn(CC(=O)Nc3ccccc3Cl)nn2)cc1 | > 25 µg/mL
46 | O=C(Cn1cc(COc2ccc([N+](=O)[O-])cc2)nn1)Nc1ccccc1 | > 25 µg/mL
47 | Cc1cccc(NC(=O)Cn2cc(COc3ccccc3)nn2)c1 | > 25 µg/mL
48 | O=C(Cn1cc(COc2ccc([N+](=O)[O-])cc2)nn1)Nc1ccc(Cl)cc1 | > 25 µg/mL
49 | COc1ccc(OCc2cn(CC(=O)Nc3ccc(Cl)cc3)nn2)cc1 | > 25 µg/mL
